Reference: patent EP2879647B1, “SKIN CARE” (University of Pretoria, priority 2012, dated 2014)
pIC50: −log10 of the molar value. Values after ≈ are worked out from the molar mass of the structure shown. Values joined by “and” are separate entries in the source; they are usually repeats but may differ in a detail not shown here. Identical values can stand only once. *1 amine or outer side, *2 acyl side, *3 side chain or, on linkers, in order; H or OH if unused. Where a SMILES comes first, the peptide text is derived from it. Bridges are numbered along the chain shown (N, C = ends). Roman numbers before positions name the chains, in order. [ ]: non-standard residue; d: D form. Actinocin(9to1) = Cc1c2oc3c(C)ccc(C(=O)[*:1])c3nc-2c(C(=O)[*:2])c(N)c1=O; NMeV = CN[C@H](C(=O)O)C(C)C; Sar = CNCC(=O)O

Legend:
[1] = constituent of Viburnum jucundum (Rios et al., 2001); cited from earlier work
[2] = In vitro cytotoxicity assay (XTT); details: mouse; for CC50: b16-f10 cells
Procedure: (§1) The mouse melanocytes (B16-F10) cells were cultured in a complete Minimum Essential Eagle's Medium (MEM) whereas the human U937 cells were cultured in Roswell Park Memorial Institute (RPMI) containing 10% fetal bovine serum (FBS) and 1% gentamycin. B16-F10 (10^5 cells per well) and U937 (10^6 cells per well) were seeded into a 96-well plate. […] The plate was then incubated at 37°C in 5% CO2, and a humidified atmosphere after which the toxicity effects of the extracts was assayed using the XTT (sodium 3'-[1-(phenyl amino-carbonyl)-3,4-tetrazolium]-bis-[4-methoxy-6-nitrobenzene sulfonic acid hydrate) cytotoxicity assay. […] By referring to the control (medium with DMSO), the cell survival rate was assessed.

[3] = In vitro cytotoxicity assay (XTT); details: human; for CC50: u937 cells
Procedure: as §1

[4] = tested on: Propionibacterium acnes (ATCC 11827); assay: Antibacterial bioassay, MIC by broth microdilution (INT colour change); details: Cutibacterium acnes, ATCC11827, 72 h, read-out: Antibacterial MIC
Procedure: Briefly, the bacteria was cultured from a Kwik-Stick on nutrient agar and incubated at 37°C for 72 h under anaerobic conditions before the assay. The 72 h culture of the bacteria was dissolved in nutrient broth and the suspension was adjusted to 0.5 McFarland standard turbidity. […] In a sterile 96-well plate, 100 µl of samples from the stock solution consisting of the plant extract/ isolated compounds (2 mg/ml in 10% dimethyl sulphoxide (DMSO)) and the positive control tetracycline (0.2 mg/ml) was diluted with broth. […] The bacterial suspension (100 µl) was added to the wells. […] The plates were incubated at 37°C for 72 h in an anaerobic environment.

[5] = DPPH antioxidant (radical scavenging) assay; format: biochemical; details: for Antioxidant IC50 / pIC50: DPPH; for Antioxidant IC50: 550 nm, samples 100 to 0.7 µg/ml; for pIC50: value in brackets
Procedure: Following the procedures as described by DuToit et al. (2001) for each sample, a dilution series (8 dilutions) was prepared in a 96 well plate by adding distilled water as a dilution medium. […] Each concentration was tested in triplicates. Vitamin C was used as a positive control. The radical scavenging capacities of the samples were determined using a BIOTEK plate reader to measure the disappearance of DPPH at 550 nm. The radical scavenging activity was measured in terms of the amount of antioxidants necessary to decrease the initial DPPH absorbance by 50% (IC50). The IC50 value of each sample was determined graphically by plotting the absorbance of DPPH as a function of the sample concentration in μg/ml. The IC50 is the amount of antioxidant necessary to decrease the initial DPPH absorbance by 50%. The results were calculated using the following equation: AA% = {Absblank(Abssample-Abscontrol)/Absblank} × 100 [formula] The mg vitamin C equivalents/g dry weight of potent samples was calculated as follows: […]) = (IC50(vitc)/IC50(sample)) × 1000. [formula]

[6] = tested on: IL-8; assay: Cytokine production (ELISA) in U937 cells co-cultured with heat-killed P. acnes; format: cell-based, human; details: U937 cells infected with P. acnes (Fig 3b)
[7] = tested on: TNF a; assay: as above; format: cell-based, human; details: 100 and 50 µg/ml, U937 cells infected with P. acnes (Fig 3b)
Procedure: The effect of plant extract on cytokine production (IL 8 and TNF a) was evaluated using enzyme immunoassay kits (ELIZA) using method as described previously (Tsai et al., 2010). Briefly, the log phase culture of P.acnes was harvested, washed three times with phosphate buffer saline (PBS), and incubated at 80°C for 30 min to kill the bacteria. The heat-killed bacteria were stored at 4°C until use. The human U937 cells were seeded at 10^6 cells per well in a 24-well plate and was stimulated with heat killed P. acnes (wet weight 100 µg/ml) alone and in combination with the different test samples. Pentoxifylline was used as a control. After 18 h incubation, the cell-free supernatants were collected and the concentrations of IL 8 and TNF a were analysed. Cytokine standards were serially diluted to facilitate the construction of calibration curves necessary for determining protein concentration of test samples.

[8] = tested on: CNS cancer cells (XF498); details: Sung et al., 1999; cited from earlier work
[9] = tested on: colorectal cancer cells (HCT15); details: Sung et al., 1999; cited from earlier work
[10] = tested on: skin cancer cells (SL-MEL-2); details: Sung et al., 1999; cited from earlier work
[11] = tested on: MAC tumour cells; details: Woldemariam et al. (1992); cited from earlier work
[12] = tested on: U937 human macrophage; assay: In vitro cytotoxicity assay (XTT); details: XTT
Procedure: as §1

[13] = tested on: P. acnes; assay: Transmission electron microscopy (TEM) of treated bacteria; details: 50 µg/ml, 72 h
Procedure: The bacterial suspension (5 ml) was mixed with plant extract and pure compound to a final concentration of 300 and 100 µg/ml for plant extract and 50 µg/ml for pure compound. […] The pathogen was treated for 72 h; the control group consisted of only bacterial suspension in nutrient broth. […] Samples were washed with phosphate buffer and postfixed in both 1% osmium tetraoxide and uranyl acetate. The cells were dehydrated in ethanol and embedded in quetol resin. Thin sections were prepared with a microtome and micrographs were taken using a JEOL JEM-2100F field emission electron microscope.

For `CCCCCCCCCCCCCCCCCCCCCCCCCCCCCCO` [Compound C2, triacontanol], the toxicity [1] is listed as “non toxic”, the EC50 [2] is listed as greater than 100 µg/mL and the viability at 100 µg/ml [2] is listed as 100%. It also gave an EC50 [3] greater than 100 µg/mL, a viability at 100 µg/ml [3] of 100% and an MIC [4] greater than 500 µg/mL. The “Antioxidant IC50” value [5] was greater than 100 µg/mL.
For `CC(=O)OC/C=C(\C)CCC[C@H](C)CCC[C@H](C)CCCC(C)C` [Compound C1, phytol acetate], the MIC [4] was greater than 500 µg/mL and the “Antioxidant IC50” value [5] was greater than 100 µg/mL.
Work on `Cc1c2oc3c(C)ccc(C(=O)N[C@@H]4C(=O)N[C@H](C(C)C)C(=O)N5CCC[C@H]5C(=O)N(C)CC(=O)N(C)[C@@H](C(C)C)C(=O)O[C@@H]4C)c3nc-2c(C(=O)N[C@@H]2C(=O)N[C@H](C(C)C)C(=O)N3CCC[C@H]3C(=O)N(C)CC(=O)N(C)[C@@H](C(C)C)C(=O)O[C@@H]2C)c(N)c1=O` [actinomycin D, reference compound] (I: T[dV]P[Sar][NMeV] / II: T[dV]P[Sar][NMeV]; ester I:1-I:C, II:1-II:C; linker I:N-II:N via Actinocin(9to1)) yielded a CC50 [2] of 0.0045 µg/mL (≈ 0.00358 µM) and a CC50 [3] of 0.0045 µg/mL (≈ 0.00358 µM).
With `CC(=O)CCCCn1c(=O)c2c(ncn2C)n(C)c1=O` [pentoxifylline] the IL-8 concentration [6] was “no change” and the “inhibition of TNF a” value [7] was “Significant inhibition”.
With `CN(C)[C@@H]1C(O)=C(C(N)=O)C(=O)[C@@]2(O)C(O)=C3C(=O)c4c(O)cccc4[C@@](C)(O)[C@H]3C[C@@H]12` [tetracycline, reference compound] the MIC [4] was 3.1 µg/mL and 7 µM.
For `O=C1O[C@H]([C@@H](O)CO)C(O)=C1O` [vitamin C, reference compound], the “Antioxidant IC50” value [5] was 1.98 µg/mL and the pIC50 [5] was 4.95.
For `C/C(=C\CO)CCC[C@H](C)CCC[C@H](C)CCCC(C)C` [Compound C3, phytol], the EC50 [2] is listed as greater than 100 µg/mL, the viability at 100 µg/ml [2] is listed as 100% and the “toxicity against CNS cancer cells (XF498)” value [8] is listed as “mild toxicity”. For the same compound, the “toxicity against colorectal cancer cells (HCT15)” value [9] was “mild toxicity”, the EC50 [3] was greater than 100 µg/mL and the viability at 100 µg/ml [3] was 100%. The MIC [4] was greater than 500 µg/mL, the “Antioxidant IC50” value [5] was greater than 100 µg/mL and the “toxicity against skin cancer cells (SL-MEL-2)” value [10] was “mild toxicity”.
For `COc1c(C)c(O)c(Cc2c(O)c(C)c(OC)c(C(=O)C(C)C)c2O)c(O)c1C(=O)C(C)C` [Compound C4, alpha kosin], the “cytotoxic effects against MAC tumour cells” value [11] is given as “strong cytotoxic effects”, the CC50 [2] is given as less than 3.12 µg/mL and the “Cytotoxicity EC50 U937 human macrophage” value [12] is given as less than 3.12 µg/mL. For the same compound, the CC50 [3] was less than 3.12 µg/mL, the MIC [4] was 1.9 µg/mL and 2.1 µM and the “mg vitamin C equivalents/g dry weight” value ([5]; (IC50 vit C / IC50 sample) x 1000) was 392 mg vitamin C equivalents/g dry weight. The “Antioxidant IC50” value [5] was 5.05 µg/mL, the pIC50 [5] was 4.98 and the “cell injuries to P. acnes (TEM micrograph)” value [13] was “significant damage to P. acnes”.
